Data published in article PMC12040169 (PLOS Biology, 2025).

Assay: in vitro
Settings: human, hela cells, % viability

Row | SMILES | viability at 28.5 h, 10 µM [%] | viability at 28.5 h, 10 µM (bulk resorufin, single well) [%]
1 | Nc1nncn1C(=O)c1ccccc1SCc1ccccc1 [CBK270120] | 88.9 | 
2 | COc1ccc(C2C(C(=O)c3ccc(Cl)cc3)=C(O)C(=O)N2CCN(C)C)cc1OC (stereo not shown) [CBK264660] | 103 | 
3 | OCC1OC(n2cnc3c(Oc4ccccc4)ncnc32)CC1O (stereo not shown) [CBK201181] | 91.5 | 
4 | CCOC(=O)C1(c2ccccc2)CCN(C(=O)CCSC)CC1 [CBK132184] |  | 113
5 | CCCn1nc(C)c(CN(C)Cc2n[nH]c3c2CCCC3)c1C [CBK282600] | 95.4 | 
6 | CCCCc1cc(=O)oc2cc(OC(C)C(=O)O)c(Cl)cc12 (stereo not shown) [CBK265166] | 95.7 | 
7 | CCN(CC)S(=O)(=O)c1ccc(CNC(=O)Cc2ccc(Cl)cc2)cc1 [CBK306188] | 105 | 
8 | Oc1ccccc1/C=N/c1ccc(Cc2ccc(/N=C/c3ccccc3O)c(O)c2)cc1O [CBK261156] | 93.4 | 
9 | COc1ccccc1CNC(=O)c1cccc(C)c1[N+](=O)[O-] [CBK265703] | 87.8 | 
10 | O=C1NC2=NOCCC2=CN1[C@H]1C[C@@H](O)[C@@H](CO)O1 [CBK201192] | 96.8 | 
11 | CCNC(=O)CNc1cc(C#N)ccc1C(F)(F)F [CBK306432] | 86.5 | 
12 | O=C(c1ccccn1)N1CCCC(n2cnc3cc(F)ccc32)C1 (stereo not shown) [CBK284476] | 92.7 | 
13 | Cc1ccc(CNC(=O)OCCN2CCN(C)CC2)n1C [CBK200287] | 86.8 | 
14 | COc1cc2c(cc1NC(=O)C(C)Oc1ccccc1)oc1ccccc12 (stereo not shown) [CBK264061] | 91.3 | 
15 | COc1cccc(Cc2cccc(C3CCN(C(=O)Cc4c[nH]c5ccccc45)CC3)n2)c1 [CBK286145] | 93.1 | 
16 | Cc1nn(CC(=O)OC2CCCCC2)c(=O)c2cc3ccsc3n12 [CBK284058] | 82.5 | 
17 | Clc1cc(N2CCCC2)ncn1 [CBK083597] | 99.2 | 
18 | NC(=O)c1ccccc1NC(=O)CN(c1cccc(Br)c1)S(=O)(=O)c1ccccc1 [CBK265263] | 92.1 | 
19 | CCC(CC)CNc1ncnc2ccc(S(C)(=O)=O)cc12 [CBK306495] | 90.9 | 
20 | c1cc2c(cc1-c1nn3cnnc3s1)OCCO2 [CBK287866] | 88.1 | 
21 | CCC1SC2=NC(C)=C(C(=O)OCc3ccccc3)C(c3ccccc3)N2C1=O (stereo not shown) [CBK293960] | 82.7 | 
22 | CS(=O)(=O)N(CC(=O)Nc1ccccc1C(=O)N1CCOCC1)c1ccc(F)c(Cl)c1 [CBK267931] | 98.1 | 

Row | SMILES | viability at 28.5 h, 10 µM [%] | viability at 28.5 h, 10 µM (bulk resorufin, single well) [%]
23 | O/N=C1/CCCCCC1NO (stereo not shown) [CBK264368A] | 107 | 
24 | CC(C)(C)NC(=O)CN1CCC(c2ccc(F)cc2)CC1 [CBK283629] | 90.1 | 
25 | N#Cc1nonc1NCn1nnc2ccccc21 [CBK062650] | 81.7 | 
26 | O=C(O)c1ccc2c(c1)C(=O)N(c1ccc(-c3nc(-c4ccccc4)c4ccccc4n3)cc1)C2=O [CBK263311] | 101 | 
27 | CC(C)NC(=O)Cn1c(=O)n(Cc2cccs2)c2ncccc21 [CBK283900] | 83.6 | 
28 | Cc1nc(C(=O)N2CCn3nc(C(O)Cc4ccccc4)cc3C2)cs1 (stereo not shown) [CBK307214] | 98.5 | 
29 | CN1CCC(C(=O)NC(=O)NC2CCCCC2)CC1 [CBK034825] | 112 | 
30 | O=C(O)/C=C\C(=O)Nc1cccc(NC(=O)c2cccs2)c1 [CBK263952] | 85.7 | 
31 | Cc1c(C(=O)Nc2cccnc2)nnn1-c1cccc(C(F)(F)F)c1 [CBK107389] | 97.1 | 
32 | O=C(O)/C=C/c1cccc(/C=C/C(=O)O)c1 [CBK261650] | 89.9 | 
33 | Cc1ccc(C2C(C(=O)c3sc(-c4ccccc4)nc3C)=C(O)C(=O)N2CCN(C)C)o1 (stereo not shown) [CBK234004] | 107 | 
34 | COc1ccc(C(NC(=O)C2CCN(C(=O)Oc3ccccc3)CC2)c2ccccc2C)cn1 (stereo not shown) [CBK059715] | 91.1 | 
35 | CC1(C)C2CCC1(CS(=O)(=O)N1CCC(C(N)=O)CC1)C(=O)C2 (stereo not shown) [CBK269499] | 102 | 
36 | COC1C(O)C(CO)OC1n1cc(F)c(Oc2c(C)cc(C)cc2C)nc1=O (stereo not shown) [CBK201279] | 98.2 | 
37 | Cn1c(COc2ccc(Cl)cc2Cl)nnc1SCC(=O)N1c2ccccc2SC2C=CC=CC21 (stereo not shown) [CBK268359] | 103 | 
38 | Cc1cccc2cnc(C3CCN(C(=O)c4cnn(C)c4C)CC3)cc12 [CBK285196] | 88.2 | 
39 | COC(=O)c1csc(-c2ccc(Cl)cc2Cl)n1 [CBK067776] | 103 | 
40 | O=[N+]([O-])c1ccc(N2CCN(S(=O)(=O)Cc3ccccc3)CC2)cc1N1CCN(Cc2ccccc2)CC1 [CBK264951] | 101 | 
41 | O=C(CN1C(=O)c2ccccc2C1=O)Nn1cnnc1 [CBK263789] | 99.6 | 
42 | COc1ccc(C(=O)N2CCC3(CCCN(C(=O)c4cccnc4)C3)C2)cc1OC (stereo not shown) [CBK131668] | 97.8 | 
43 | CSc1nnc(-c2ccc(Br)cc2)o1 [CBK026502] | 91.9 | 
44 | CN1C[C@H](CNC(=O)Nc2ccc(F)c(F)c2)[C@@H](c2ccc(Cl)c(Cl)c2)C1 [CBK076770] | 95.7 | 

Row | SMILES | viability at 28.5 h, 10 µM [%] | viability at 28.5 h, 10 µM (bulk resorufin, single well) [%]
45 | O=C(CN1CCCCCC1=O)Nc1nc(-c2ccccc2F)cs1 [CBK281408] | 104 | 
46 | O=C(Nc1ccccc1)c1ccc(COc2ccc3ccccc3c2)o1 [CBK265897] | 113 | 
47 | CCn1cc(CN2CCCN(C(=O)c3cccn(C)c3=O)CC2)cn1 [CBK305375] | 106 | 
48 | O=c1oc2ccc(Cl)cc2n1C1CCN(Cc2ccco2)CC1 [CBK284342] | 102 | 
49 | Cc1cc(C(=O)CSc2nnnn2-c2ccc(O)cc2)c(C)n1Cc1ccc(F)cc1 [CBK297081] | 98.8 | 
50 | Cc1cc2ncn(CC(=O)N3CCc4ccccc43)c2cc1C [CBK200270] | 114 | 
51 | Cc1ccc(OCc2occc2C(=O)N2CCC(O)(CN(C)C)C2)cc1 (stereo not shown) [CBK307341] | 95.6 | 
52 | CCOc1ccc(-n2c(N)c(C(=O)NCc3ccco3)sc2=S)cc1 [CBK265578] | 96.3 | 
53 | Cn1nccc1C(=O)Nc1nc(-c2ccccc2)cs1 [CBK287833] | 83.8 | 
54 | Cc1cc2c(=O)n(Cc3ccco3)c(SCc3nc4ccccc4[nH]3)nc2s1 [CBK268202] | 88.2 | 
55 | CC(C)(C)OC(=O)N1CCN(c2cc(NCc3ccccc3)ncn2)CC1 [CBK000137] | 94.7 | 
56 | N#Cc1ccccc1N1C(=O)c2cccc([N+](=O)[O-])c2C1=O [CBK115322] | 94.1 | 
57 | COC(=O)Cn1cc(CN2CC3CCCN3C[C@H]2C)c2ccccc21 (stereo partly shown) [CBK285436] | 92.2 | 
58 | COc1ccc(CNC(=O)CN2C(=O)[C@@H]3CCCN3C(=O)c3ccccc32)cc1 [CBK286322] | 89.7 | 
59 | CC(=C\C(=O)O)/C(=C/c1ccc2ccccc2n1)C(=O)O [CBK278294N] | 87.7 | 
60 | CCN(CCN(C)C)Cc1ccc(F)cc1F [CBK261877] | 93.1 | 
61 | Cn1[nH]c(CO)c(Cc2c(Cl)cccc2Cl)c1=O [CBK092278T] | 95.4 | 
62 | COc1ccc(-n2ncc3c2CC(C)(C)CC3N)cc1 (stereo not shown) [CBK306789] | 80 | 
63 | C#CCNC(=O)C1CCN(c2nc3ccccc3n2C)CC1 [CBK283956] | 89.7 | 
64 | NC(=O)c1ccc(C(=O)OCc2ccc(-c3ccccc3)cc2)cc1 [CBK297736] | 95.7 | 
65 | COc1ccc(C2CC(c3c(-c4ccccc4)c4cc(Cl)ccc4[nH]c3=O)=NN2C(=O)CCC(=O)O)cc1OC (stereo not shown) [CBK296128] | 103 | 
66 | CC(C)(C)C(=O)N1CCC(c2nnc3n2CCCCC3)CC1 [CBK285311] | 88.7 | 

Row | SMILES | viability at 28.5 h, 10 µM [%] | viability at 28.5 h, 10 µM (bulk resorufin, single well) [%]
67 | COc1ccc(S(=O)(=O)Nc2nc3c(s2)C(=O)CC(C)(C)C3)cc1 [CBK095611] | 94.7 | 
68 | CC1(C)CC(=O)c2sc(NC(=O)Nc3ccccc3)nc2C1 [CBK287319] | 104 | 
69 | CC(C)Nc1nc(-c2cccnc2)cn2ccnc12 [CBK093608] | 96.6 | 
70 | CC(C)(C)OC(=O)NCc1ccc(-c2cc(NC3CCCCC3)ncn2)cc1 [CBK090898] | 98.5 | 
71 | O=C(Cn1cnc2c(c1=O)CCCC2)Nc1ccc(Cl)c(Cl)c1 [CBK304655] | 102 | 
72 | NC1=C(c2ccccc2)C(=O)CN1NC(=O)COc1ccccc1-c1ccccc1 [CBK269258] | 95.1 | 
73 | CCOC(=O)c1ccc(N2CC(C(=O)O)CC2=O)cc1 (stereo not shown) [CBK268106] | 115 | 
74 | COc1ccc(N2C(=O)c3ccc(C(=O)OCC(=O)c4ccccc4Cl)cc3C2=O)c([N+](=O)[O-])c1 [CBK265514] | 83.7 | 
75 | c1ncc(OC2CCN(CCN3CCOCC3)C2)nc1OCCN1CCOCC1 (stereo not shown) [CBK084492] | 97.6 | 
76 | O=C(O)C1C2C=CC(O2)C1C(=O)Nc1ccc(S(=O)(=O)N2CCc3ccccc32)cc1 (stereo not shown) [CBK268176] | 91.1 | 
77 | CCc1cccc(C)c1NC(=O)C1C2CCC(O2)C1C(=O)O (stereo not shown) [CBK263676] | 88.1 | 
78 | Cc1csc(NC(=O)c2cc(S(=O)(=O)N3CCCC3)cn2C)n1 [CBK295617] | 87.8 | 
79 | O=C(CN(c1ccc2c(c1)OCCO2)S(=O)(=O)c1ccccc1)N1CCN(Cc2ccccc2)CC1 [CBK266444] | 113 | 
80 | CC(C)NC(=O)NC[C@H]1C[C@@H]2CCN1C[C@@H]2c1cc(-c2cccs2)nn1C [CBK289103] | 90 | 
81 | Cc1ccc(-n2c(SCC(=O)Nc3ccccc3C#N)nnc2-c2cc(Br)ccc2O)c(C)c1 [CBK268743] | 94.1 | 
82 | COc1ccc(-c2nccnc2NCCCN(C)C)cc1 [CBK037671] | 93.9 | 
83 | O=C(CCCc1nc2ccccc2c(=O)[nH]1)NC(Cc1ccc(O)cc1)C(=O)O (stereo not shown) [CBK297130] | 101 | 
84 | COc1ccccc1C(NC(=O)C1CCN(C(=O)OC(C)C)CC1)c1ccccn1 (stereo not shown) [CBK059649] | 111 | 
85 | COc1ccc(Br)cc1CN(CCc1ccc2c(c1)OCO2)Cc1cccnc1 [CBK263327G] | 96.8 | 
86 | C=CCn1c(SCC(=O)Nc2sc3c(c2C#N)CCC3)nc2scc(-c3ccccc3)c2c1=O [CBK264477] | 104 | 
87 | COc1ccc(N(CC(O)CN2CCOCC2)S(=O)(=O)c2ccccc2)cc1 (stereo not shown) [CBK263589] | 84.5 | 
88 | CN(C)C(=O)c1ccc(-c2ncc(OCCN3CCOCC3)nc2N)cc1 [CBK145183] | 93.1 | 
